Data set [1] can be described thus: Solubility in water (visual, confirmed by HPLC assay of a saturated solution). Format: physicochemical. Conditions: thermodynamic from solid. The procedure: The solubility of the material was determined by adding water in aliquots from […] to approximately 100 mg of drug substance until the powder had dissolved. The visual solubility was confirmed by an HPLC assay of a saturated solution. Solubility: >100 mg/ml.

The nature of data set [2]: Solid state stability (storage for 1 month, HPLC assay). In kind it is physicochemical. Conditions: glass bottle.
Description: The solid state stability of the drug substance was determined by storing approximately 1.0 g of the material in a glass bottle at a) 40° C./75 % Relative Humidity (RH), open exposure, for 1 month and b) at 50° C., closed, for 1 month. The material was assayed by HPLC for final content and degradation products in both cases.

As a reminder, the solubility is the dissolved amount per volume that the medium holds. Read a low solubility as little dissolved substance.

Take `CN(CCOc1ccc(CC2SC(=O)NC2=O)cc1)c1ccccn1.[K]` (centres unmarked) [Potassium Salt, 5-[4-[2-(N-Methyl-N-(2-pyridyl)amino)ethoxy]benzyl]thiazolidine-2,4-dione, potassium salt]: the solubility in data set [1] was over 100 mg/mL. Besides, in data set [2] (40° C./75% RH, open exposure), the “Degradation (HPLC, degradation products)” value is on record as “No significant degradation observed” and the “HPLC assay for final content” value was determined as 101 % initial. Further, in data set [2] (50° C., closed), the “Degradation (HPLC, degradation products)” value is “No significant degradation observed” and the “HPLC assay for final content” value turned out to be 99 % initial.
